Measurements taken from patent publication US20240082268A1, “METHODS AND COMPOSITIONS FOR CONTROLLING NEUROINFLAMMATION” (Invenux, LLC, priority 2021, published 2024).

Assays:
[1] = test system: inflammatory signaling molecules; assay: Inflammatory signaling molecules in plasma and CSF, mouse model of MPS IIIB; type: in vivo; conditions: MPS IIIB KO mice, 100, 33 or 10 mg/kg/day oral, after 6 months, vs vehicle control
Description: In particular, less of one or more of IL-1alpha, IL1beta, IL-2, IL-4, IL-6, IL-8, 11-10, IL-17A, IL-23, INF-gamma, MCP-1, caspase-1, caspase-3, TNF-alpha, and TGF-beta-alpha is expected.

[2] = test system: CD68 (microglia activation); assay: CD68 immunoreactivity in brain slices, mouse model of MPS IIIB; type: in vivo
Method: (§1) Brain slices were taken along the rostro caudal axis in a serial section. Quantification using the brain slices was performed using Image Pro Premiere software.
(§2) The breeding pairs of MPS IIIB mice were obtained from Jackson Laboratory (JAX stock #003827) and a MPS IIIB mouse colony was established. In MPS IIIB or Sanfillipo syndrome mice, both alleles of alpha-N-acetylglucosaminidase (NAGLU) are disrupted, knocked out (KO), by insertion of a neomycin resistance gene via homologous recombination. Gografe S I; Garbuzova-Davis S; Willing A E; Haas K; Chamizo W; Sanberg P R. Mouse model of Sanfilippo syndrome type B: relation of phenotypic features to background strain Comp Med 53(6):622-32. […] The heterozygous (Het) mice have only one allele of the NAGLU gene disrupted and can fully metabolize HS.
(§3) FIG. 1A and FIG. 1B show bar graphs of the percentage staining of Cluster of Differentiation 68 (CD68) and glial fibrillary acidic protein (GFAP), respectively, in serial section (one every twelve sections of 40 um thick) along the rostrocaudal axis of the brain after 30 days. […]
(§4) Quantification of brain slices was performed using Image Pro Premiere software.
(§5) After 30 days, animals were sacrificed and brain slices were taken along the rostro caudal axis in a serial section. Quantification was performed using Image Pro Premiere software.

MPS IIIB KO mice = assay: Behavioral and cognitive tests in mouse model of MPS IIIB; type: in vivo; conditions: MPS IIIB KO mice, 100, 33 or 10 mg/kg/day oral, after 6 months, vs vehicle control
Method: CBD or vehicle is administered daily by oral gavage. […] At baseline, and after 3, 6, and 9 months, the mice are given behavioral tests to measure hyperactive and social interaction, and cognitive tests to measure spatial memory and learning deficits.

[3] = test system: GFAP (astrocyte activation); assay: GFAP immunoreactivity in brain slices, mouse model of MPS IIIB; type: in vivo
Method: as §1, §2, §3, §4, §5

[4] = molecular target: voltage-gated sodium channel Nav 1.6 receptor (Homo sapiens, UniProt Q9UQD0); conditions: cited from earlier work
Sequence of voltage-gated sodium channel Nav 1.6 receptor (Q9UQD0 whole entry): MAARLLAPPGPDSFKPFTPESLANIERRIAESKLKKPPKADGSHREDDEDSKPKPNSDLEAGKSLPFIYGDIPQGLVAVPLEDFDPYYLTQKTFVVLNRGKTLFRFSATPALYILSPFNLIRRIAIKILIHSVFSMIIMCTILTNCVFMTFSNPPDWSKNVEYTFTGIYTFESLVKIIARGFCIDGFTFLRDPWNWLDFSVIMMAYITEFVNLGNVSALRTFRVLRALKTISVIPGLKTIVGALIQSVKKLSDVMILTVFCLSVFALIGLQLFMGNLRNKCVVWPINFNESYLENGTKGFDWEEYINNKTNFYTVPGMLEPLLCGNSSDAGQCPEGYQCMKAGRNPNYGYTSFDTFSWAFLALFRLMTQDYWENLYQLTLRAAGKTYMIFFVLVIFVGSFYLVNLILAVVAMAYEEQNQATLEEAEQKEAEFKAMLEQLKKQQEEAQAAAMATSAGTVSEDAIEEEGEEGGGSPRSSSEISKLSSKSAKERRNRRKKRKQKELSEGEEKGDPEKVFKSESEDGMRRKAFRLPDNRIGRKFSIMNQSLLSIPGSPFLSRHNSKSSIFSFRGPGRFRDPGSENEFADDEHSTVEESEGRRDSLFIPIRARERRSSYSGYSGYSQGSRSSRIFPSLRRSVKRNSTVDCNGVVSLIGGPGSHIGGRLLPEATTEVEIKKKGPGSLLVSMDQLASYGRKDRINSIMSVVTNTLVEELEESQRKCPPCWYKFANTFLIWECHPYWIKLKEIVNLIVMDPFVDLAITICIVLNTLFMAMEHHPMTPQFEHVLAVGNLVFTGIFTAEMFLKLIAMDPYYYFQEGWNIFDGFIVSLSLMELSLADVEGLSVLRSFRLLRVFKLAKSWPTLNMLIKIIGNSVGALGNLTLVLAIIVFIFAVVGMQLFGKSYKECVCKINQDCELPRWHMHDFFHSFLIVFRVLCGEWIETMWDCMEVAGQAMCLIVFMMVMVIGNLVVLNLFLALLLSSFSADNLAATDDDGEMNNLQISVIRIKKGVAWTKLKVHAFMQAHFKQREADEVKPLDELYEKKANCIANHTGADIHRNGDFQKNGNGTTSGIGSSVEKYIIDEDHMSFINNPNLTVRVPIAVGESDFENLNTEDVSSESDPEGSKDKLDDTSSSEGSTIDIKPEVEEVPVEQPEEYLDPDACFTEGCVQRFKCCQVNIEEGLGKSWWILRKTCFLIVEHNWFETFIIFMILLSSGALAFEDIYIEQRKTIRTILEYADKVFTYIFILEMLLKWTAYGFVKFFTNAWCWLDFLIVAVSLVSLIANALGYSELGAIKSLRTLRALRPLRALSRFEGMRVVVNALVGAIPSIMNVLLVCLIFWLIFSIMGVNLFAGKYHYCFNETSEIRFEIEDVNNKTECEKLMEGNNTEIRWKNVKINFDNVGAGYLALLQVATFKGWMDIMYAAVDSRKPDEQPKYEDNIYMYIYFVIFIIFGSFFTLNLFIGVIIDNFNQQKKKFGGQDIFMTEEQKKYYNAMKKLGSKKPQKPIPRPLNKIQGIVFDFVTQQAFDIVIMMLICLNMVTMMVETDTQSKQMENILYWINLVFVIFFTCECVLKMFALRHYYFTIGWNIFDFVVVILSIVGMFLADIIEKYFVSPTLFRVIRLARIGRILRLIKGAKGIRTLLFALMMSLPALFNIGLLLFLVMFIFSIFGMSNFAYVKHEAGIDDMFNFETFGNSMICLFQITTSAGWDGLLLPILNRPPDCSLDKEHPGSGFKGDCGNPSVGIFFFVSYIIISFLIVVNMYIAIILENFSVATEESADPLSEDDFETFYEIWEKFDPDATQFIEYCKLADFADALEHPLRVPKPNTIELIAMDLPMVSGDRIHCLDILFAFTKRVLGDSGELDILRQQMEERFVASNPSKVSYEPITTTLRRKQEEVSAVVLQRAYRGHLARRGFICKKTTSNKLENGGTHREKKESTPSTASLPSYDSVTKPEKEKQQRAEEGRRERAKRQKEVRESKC

[5] = molecular target: CB2 endocannabinoid receptor (Homo sapiens, UniProt P34972); conditions: cited from earlier work
Sequence of CB2 endocannabinoid receptor (P34972 whole entry): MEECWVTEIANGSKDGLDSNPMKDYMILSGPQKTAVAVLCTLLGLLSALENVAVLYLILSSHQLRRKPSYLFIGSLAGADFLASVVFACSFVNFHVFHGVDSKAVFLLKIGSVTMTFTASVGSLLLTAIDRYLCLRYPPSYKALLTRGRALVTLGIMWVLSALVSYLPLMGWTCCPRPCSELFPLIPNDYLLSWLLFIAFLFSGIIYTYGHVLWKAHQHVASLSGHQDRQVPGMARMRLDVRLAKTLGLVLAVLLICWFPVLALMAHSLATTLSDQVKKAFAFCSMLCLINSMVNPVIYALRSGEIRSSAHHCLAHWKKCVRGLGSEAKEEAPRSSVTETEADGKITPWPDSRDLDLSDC

[6] = in vivo; cited from earlier work
[7] = 9-month old MPS IIIB KO mice, 100 mg/kg CBD in sesame oil, oral gavage once daily for 30 days, vs KO mice given vehicle
[8] = MPS IIIB KO mice, 100 mg/kg oral, 30 days, representative brain slices

C=C(C)[C@@H]1CCC(C)=C[C@H]1c1c(O)cc(CCCCC)cc1O [CBD, Cannabidiol]
inflammatory signaling molecules in plasma and CSF [1]: less inflammatory signaling molecules
decrease in the immunoreactivity of CD68 (% area) in brain [2, 7]: 30%
microglia cell neuroinflammation and activation (CD68) [2, 8]: significantly decreases
hyperactivity (MPS IIIB KO mice): less hyperactivity
learning deficit (MPS IIIB KO mice): less learning deficit
social interaction (MPS IIIB KO mice): more social interaction
spatial memory (MPS IIIB KO mice): less loss of spatial memory
decrease in the immunoreactivity of GFAP (% area) in brain [3, 7]: 50%
astrocyte cell neuroinflammation and activation (GFAP) [3, 8]: significantly decreases
IC50 [4]: 1 to 6 µM
affinity to Nav 1.6 receptor [4]: uM affinity
affinity to CB2 receptor [5]: uM affinity

Adalimumab
crossing of the BBB [6]: does not cross the BBB
